Test results as given in patent US20070105792A1, “Administration Of DNA Methylation Inhibitors For Treating Epigenetic Diseases” (priority 2005, published 2007).
Marks after values point to notes of the source that are not given here.

Legend:
adult patients with MDS [1] = settings: about; after a decitabine cycle; cited from earlier work
adult patients with MDS [2] = assay: Randomized open-label controlled clinical study of decitabine plus supportive care in MDS patients; type: in vivo, human
Text: A randomized open-label, controlled clinical study at 23 sites evaluated 170 adult patients with MDS meeting French-American-British (FAB) classification and International Prognostic Scoring System (IPSS) High-Risk, Intermediate-2 and Intermediate-1 prognostic scores.
Eighty-nine patients were randomized to decitabine therapy plus supportive care (only 83 received drug), and 81 to Supportive Care (SC) alone. Patients with Acute Myeloid Leukemia (AML) were not intended to be included.
Decitabine was supplied as a lyophilized powder, 50 mg in 20 mL vials, for reconstitution and injection. Decitabine was reconstituted with 10 mL of Sterile Water for Injection USP to yield a solution of 5 mg/mL decitabine and 6.8 mg/mL KH2PO4. The reconstituted solution was further diluted for intravenous infusion with prechilled (2-8° C.) 0.9% Sodium Chloride solution USP. To slow degradation of study drug, infusion solution was refrigerated at 2-8° C. until administration, for a maximum of 10 hours.
Patients randomized to the decitabine arm received decitabine intravenously infused at a dose of 15 mg/m^2 over a three-hour period, every eight hours, for 3 consecutive days (1 cycle). Each administration of decitabine at a dose of 15 mg/m^2 infused over a three-hour period was a continuous infusion without changing the infusion bag. The total amount of decitabine per day was 45 mg/m^2; the total dose per cycle was 135 mg/m^2. […] For patients with inadequate counts 6 weeks after treatment, the study protocol specified that blood counts be repeated at least weekly during the following two-week interval, and that a reduced-dose cycle (11 mg/m^2 over a three-hour period, every eight hours, for 3 consecutive days) was to be administered if blood counts recovered to within acceptable limits (as defined above) between week 6 and 8.
Delayed myelotoxicity, with a neutrophil nadir reached between about day 18-24, is the primary toxicity of decitabine. Cytopenias, however, are also a hallmark of the MDS disease process, making it difficult to distinguish between treatment-related neutropenia and disease progression. Accordingly, the protocol required that patients showing persistent neutropenia (ANC <1,000/μL) or thrombocytopenia (platelets <50,000/μL) beyond 8 weeks following a decitabine cycle undergo bone marrow aspiration and biopsy. Upon a finding of no disease progression (i.e. only bone marrow aplasia), blood counts were to be monitored for an additional two weeks, and a reduced-dose cycle (as defined above) was to be administered if blood counts recovered to within acceptable limits (as defined above) during weeks 8-10. Patients showing neutropenia or thrombocytopenia beyond 10 weeks were to receive no further decitabine treatment.
Supportive care consisted of blood and blood product transfusions, prophylactic antibiotics, and hematopoietic growth factors. Co-primary endpoints of the study were overall response rate (CR+PR) and time to AML or death. Responses were classified with the MDS International Working Group (IWG) criteria; patients were required to be RBC and platelet transfusion independent during the time of response.

[3] = ITT, N = 89, 15 mg/m^2 3 hr iv infusion every 8 hrs for 3 days
[4] = ITT, N = 89, listed as decitabine
[5] = patients evaluable for response (confirmed MDS at baseline, at least 2 courses)
[6] = patients with adjudicated baseline diagnosis of AML
[7] = patients with cytogenetic abnormalities, MDS IWG criteria

With `Nc1ncn([C@H]2C[C@H](O)[C@@H](CO)O2)c(=O)n1` [Decitabine, 5-aza-2′-deoxycytidine] as the molecule, how does the “Neutrophil nadir (delayed myelotoxicity, primary toxicity)” value (adult patients with MDS [1]) read?
Its value is 18 to 24 days.

And the “Response by IPSS Classification (CR + PR)” value (adult patients with MDS [2]; High Risk)?
Its value is “(13%)”.

What about the “Response by IPSS Classification (CR + PR), responders/patients” value (shortened to “Response … (CR + PR), responders/patients”) (adult patients with MDS [2]; High Risk) of the same molecule?
The value was 3/23.

What about the “Median Duration of (CR + PR + HI) response” value (adult patients with MDS [2]; ITT) of the same molecule?
The value was 253 days.

And the “Median time to (CR + PR + HI) response” value (adult patients with MDS [2]; ITT)?
Its value is 44 days.

And the “Complete Response (CR)” value (adult patients with MDS [2]; ITT, N = 89)?
The value was “(9%)”.

And the “Complete Response (CR), number of patients” value (adult patients with MDS [2]; ITT, N = 89)?
The value was 8.

What about the “Hematologic Improvement (HI)” value (adult patients with MDS [2]; ITT, N = 89) of the same molecule?
Its value is “(12%)”.

What about the “Hematologic Improvement (HI), number of patients” value (adult patients with MDS [2]; ITT, N = 89) of the same molecule?
The value was 11.

What about the “Overall Improvement Rate (CR + PR + HI)” value (adult patients with MDS [2]; ITT, N = 89) of the same molecule?
Its value is “(29%)**”.

And the “Overall Improvement Rate (CR + PR + HI), number of patients” value (adult patients with MDS [2]; ITT, N = 89)?
The value was 26.

And the “Partial Response (PR)” value (adult patients with MDS [2]; ITT, N = 89)?
The value was “(8%)”.

What about the “Partial Response (PR), number of patients” value (adult patients with MDS [2]; ITT, N = 89) of the same molecule?
The value was 7.

What about the “Overall Response Rate (CR + PR)” value (adult patients with MDS [2]; [3]) of the same molecule?
Its value is 17%.

What about the “Overall Response Rate (CR + PR), number of patients” value (adult patients with MDS [2]; [3]) of the same molecule?
Its value is 15.

And the “Hematologic Improvement (HI)” value (adult patients with MDS [2]; [4])?
Its value is 12%.

What about the “Overall Improvement Rate (CR + PR + HI)” value (adult patients with MDS [2]; [4]) of the same molecule?
Its value is 29%.

What about the “Response by IPSS Classification (CR + PR)” value (adult patients with MDS [2]; Int-1) of the same molecule?
The value was “(14%)”.

And the “Response … (CR + PR), responders/patients” value (adult patients with MDS [2]; Int-1)?
The value was 4/28.

What about the “Response by IPSS Classification (CR + PR)” value (adult patients with MDS [2]; Int-2) of the same molecule?
Its value is “(21%)”.

What about the “Response … (CR + PR), responders/patients” value (adult patients with MDS [2]; Int-2) of the same molecule?
The value was 8/38.

And the “Patients who became transfusion independent” value (adult patients with MDS [2]; RBC transfusion dependent at baseline)?
Its value is 39%.

And the “RBC and platelet transfusion status of responders” value (adult patients with MDS [2]; all 15 responders, in the absence of growth factors)?
The value was “remained or became RBC and platelet transfusion independent”.

And the “Quality of Life assessment (EORTC scale)” value (adult patients with MDS [2]; baseline, end of each treatment cycle and post-treatment)?
Its value is “less dyspnea, less fatigue and better physical functioning and global health status”.

And the “Median time to AML or death” value (adult patients with MDS [2]; decitabine arm, p=0.160, ns vs SC)?
Its value is 340 days.

What about the “Cycle by which all responders had responded” value (adult patients with MDS [2]; decitabine patients who responded) of the same molecule?
Its value is “by the fourth cycle”.

And the “Median Duration of (CR + PR) response” value (adult patients with MDS [2]; decitabine responders)?
The value was 266 days.

And the “Median time to (CR + PR) response” value (adult patients with MDS [2]; decitabine responders)?
Its value is 89 days.

And the Overall response rate (adult patients with MDS [2]; [5])?
Its Overall response rate is 21%.

And the “Overall response rate, responders/patients” value (adult patients with MDS [2]; [5])?
Its value is 12/56.

What about the “Objective response (CR or PR)” value (adult patients with MDS [2]; [6]) of the same molecule?
Its value is 56%.

What about the “Objective response (CR or PR), responders/patients” value (adult patients with MDS [2]; [6]) of the same molecule?
The value was 5/9.

What about the Major cytogenetic responses (adult patients with MDS [2]; [7]) of the same molecule?
The Major cytogenetic responses was 21%.

What about the “Major cytogenetic responses, responders/patients” value (adult patients with MDS [2]; [7]) of the same molecule?
Its value is 10/48.

What about the “Minor cytogenetic response, number of patients” value (adult patients with MDS [2]; [7]) of the same molecule?
The value was “one”.

And the “Patients who became transfusion dependent” value (adult patients with MDS [2]; transfusion independent at baseline)?
Its value is 15%.
